# Test results: PMC6713164, “Inhibitory effects of flavonoids isolated from Sophora flavescens on indoleamine 2,3-dioxygenase 1 activity” (Journal of Enzyme Inhibition and Medicinal Chemistry, 2019)
# What was measured:
# IDO1 [1] = biological target: T1, IDO1 (Homo sapiens, UniProt P14902); assay: Cell-based IDO1 assay (Kyn production) in IFN-γ-treated HeLa cells; set-up: to induce endogenous IDO1 expression; endogenous in cells; host or cells: HeLa cells stimulated with IFN-γ; conditions: IFN-γ-treated (50 ng/mL, 24 h) HeLa cells, compound 6 h; mean ± SD; read-out: IC50 against cell-based IDO1 (Kyn production)
# Description: HeLa (Human cervical cancer cells) cells were purchased from the American Type Culture Collection (ATCC) and cultured in DMEM supplemented with fetal bovine serum (FBS, 10%) and penicillin–streptomycin (1%).
# HeLa cells were seeded into 48-well plates (2 × 10^4 cells/well). Next, the cells were stimulated with human recombinant IFN-γ (50 ng/mL, R&D Systems, Minneapolis, MN) in complete DMEM for 24 h. After replacing the medium with DMEM containing IFN-γ, the cells were treated with the flavonoids (1–6) or DMSO (0.5%, v/v) for 6 h, and then the supernatant (125 µL) from each well was transferred to a 96-well plate. The cell-based assay was similarly performed to the IDO1 enzyme assay.
# IDO1 [2] = biological target: T1, IDO1; assay: IDO1 enzyme kinetics assay (Lineweaver–Burk, Dixon plots); format: biochemical; conditions: L-Trp 0–50 µM, flavonoids 0–45 µM, read-out: κi
# Description: The kinetics assay was performed by adding purified protein to the reaction mixture (200 µL) which contained a final concentration of potassium phosphate buffer (50 mM, pH 6.5), ascorbic acid (20 mM), catalase (10 mM), methylene blue (10 µM), and distilled water up to 200 µL. Various concentrations of L-Trp as substrate of IDO1 were added to the reaction mixture with four different concentrations of flavonoids (0–45 µM). After incubation at 37 °C for 1 h, the dissociation constant (κi) of the three flavonoids were determined by measuring the activity at five concentrations of L-Trp (0 to 50 µM).
# IDO1 [3] = biological target: T1, IDO1; assay: Thermal shift assay (SYPRO-Orange); format: binding; conditions: 30 µM compound, without L-Trp; read-out: increase of mean melting temperature (ΔTm) compared to DMSO-treated group
# Description: The thermal stability of proteins was measured by SYPRO-Orange (Thermo Fisher Scientific, Waltham, MA) as previously described in Soderhole et al.[24]. Briefly, IDO 1 enzyme (5 µg/mL) was mixed with 30 µM of kushenol F (KF, 4), (2S)-2'-methoxy kurarinone (MK, 5), and kushenol E (KE, 6), or serially diluted KE (6) in 20 µL reaction buffer containing potassium phosphate buffer (50 mM) and sodium chloride (100 mM), and then incubated for 1 h. The measurement of protein denaturation via an increase in temperature was determined using real-time PCR device (CFX96 Real Time System, BioRad, Hercules, CA) using the FRET channel. In the presence of IDO1 enzyme, SYPRO-Orange has a maximum excitation near 490 nm and a maximum emission near 600 nm. The heating rate and fluorescence reading were 0.5 °C/10 s depending on the temperature range 25–95 °C.
# IDO1 [4] = biological target: T1, IDO1; assay: IDO1 enzyme assay; format: biochemical; set-up: The full-length of IDO1 gene was amplified by PCR; His tag; made in house; host or cells: Escherichia coli T7 strain, vector pET28a; conditions: recombinant human IDO1, L-Trp 200 µM, 37 °C, 1 h, mean ± SD; for IC50: read-out: His-hIDO1 IC50
# From the text: The Escherihia coli DH5α and T7 strain were used for gene cloning and protein production, respectively. The human IDO1 clone was provided from Korea Human Gene Bank, Medical Genomics Research Center, KRIBB, Korea. The full-length of IDO1 gene was amplified by PCR using pfu DNA polymerase (Thermo Fisher, , Waltham, MA). The PCR product from IDO1 mRNA was cloned into expression vector pET28a to obtain pET28a-IDO1 and confirmed using DNA sequencing (Cosmogenetech, Seoul, Korea). […] The expressed IDO1 protein was purified using Ni-NTA agarose (Qiagen, Valencia, CA) at 4 °C. The eluted IDO1 protein was dialysed using storage buffer (20 mM Tris-HCl buffer (pH 8.0 and 200 mM NaCl)). The purified IDO1 protein was analysed with SDS-PAGE.
# The enzyme assays were performed with previous descripted in Takikawa et al.[23]. Briefly, 200 µL of the reaction mixture contained potassium phosphate buffer (50 mM, pH 6.5), ascorbic acid (20 mM), methylene blue (10 µM), catalase (10 mM), purified recombinant human IDO1 enzyme (5 µg/mL) and L-Trp (200 µM). The metabolites were serially diluted in dimethyl sulfoxide (DMSO, 0.5%, v/v) and transferred to a 96-well plates. […] The plates were centrifuged at 4000 rpm for 15 min to remove debris. Next, the supernatant (125 µL) from each well was transferred to a 96-well plates. p-dimethylaminobenzaldehyde (125 µL; 2%, v/v) in acetic acid was then added to each well, and the absorbance value of the plate was read at a wavelength of 480 nm using a SpectraMAX-190 ELISA reader (Molecular Devices, Sunnyvale, CA).
# His-IDO1 (P314A) [5] = biological target: T2, His-IDO1 (P314A) (Homo sapiens, UniProt P14902, P314A); assay: Surface plasmon resonance (SPR) assay, His-IDO1 (P314A); format: binding
# T2 construct: The full-length of IDO1 gene was amplified by PCR; His tag; made in house
# Description: (§1) The SPR assay was performed with 10 mM stock solution and five serially diluted concentrations of KE (6) in PBS and 5% DMSO at 25 °C using a Reichert instrument (SR7500DC System, USA) using a sensor chip CM5 (GE Healthcare, Chicago, IL) (Woojung BSC Inc, Seoul, Korea). Amine coupling of His-IDO1 (WT and P314A) was performed with 0.2 M 1-ethyl-3-(3-dimethylaminopropyl)-carbodiimide, 0.05 M N-hydroxysuccinimide, and 1 M ethanolamine (ph 8.5, GE Healthcare, Chicago, IL). The results were analysed using Scrubber software (version 2.0, BioLogic Software, Mundelein, IL).
# (§2) Point mutations were introduced using the Muta-Direct^TM mutagenesis kit (iNtRON, Seuol, Korea). Oligonucleotides for generation of Pro182 (P182A), Phe185 (F185A), double mutation (P182A and F185A), and Pro 314 (P314A) to alanine mutants (mutated residues are underlined) were as follows: • For P182A: 5′-[…]-3′, 5′-[…]-3′. • For F185A: 5′-[…]-3′, 5′-[…]-3′. • For double mutation (P182A and F185A): 5′-[…]-3′, 5′-[…]-3′. • For P314A: 5′- […]-3′, 5′- […]-3′.
# His-IDO1 (WT) = biological target: T3, His-IDO1 (WT) (Homo sapiens, UniProt P14902); assay: Surface plasmon resonance (SPR) assay, His-IDO1 (WT); format: binding
# T3 construct: The full-length of IDO1 gene was amplified by PCR; His tag; made in house; host or cells: Escherichia coli T7 strain, vector pET28a
# Description: as §1
# His-IDO1 (P314A) [6] = biological target: T2, His-IDO1 (P314A); assay: Mutagenesis assay: IDO1 enzyme assay with P314A mutant; format: biochemical; conditions: mutant form of His-IDO1 (P314A)
# Description: The enzyme assays were performed with previous descripted in Takikawa et al.[23]. […]. The metabolites were serially diluted in dimethyl sulfoxide (DMSO, 0.5%, v/v) and transferred to a 96-well plates. The reaction was conducted at 37 °C for 1 h and stopped by adding 40 µL of trichloroacetic acid (30%); the solution was then heated at 65 °C for 15 min. The plates were centrifuged at 4000 rpm for 15 min to remove debris. Next, the supernatant (125 µL) from each well was transferred to a 96-well plates. p-dimethylaminobenzaldehyde (125 µL; 2%, v/v) in acetic acid was then added to each well, and the absorbance value of the plate was read at a wavelength of 480 nm using a SpectraMAX-190 ELISA reader (Molecular Devices, Sunnyvale, CA).
# as §2
# [7] = standard error in parentheses, read-out: Ka
# T2 sequence (P14902 whole entry P314A): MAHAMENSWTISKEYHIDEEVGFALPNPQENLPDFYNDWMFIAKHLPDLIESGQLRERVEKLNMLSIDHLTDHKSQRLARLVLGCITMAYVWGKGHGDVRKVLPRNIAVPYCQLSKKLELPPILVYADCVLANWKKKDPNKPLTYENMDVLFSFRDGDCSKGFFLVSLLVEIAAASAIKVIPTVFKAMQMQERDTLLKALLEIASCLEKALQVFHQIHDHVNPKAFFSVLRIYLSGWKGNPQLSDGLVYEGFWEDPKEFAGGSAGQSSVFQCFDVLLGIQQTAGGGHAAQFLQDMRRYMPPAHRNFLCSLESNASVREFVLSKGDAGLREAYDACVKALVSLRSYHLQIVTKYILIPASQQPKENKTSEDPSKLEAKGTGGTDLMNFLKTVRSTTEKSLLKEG
# T1 sequence (P14902 whole entry): as the sequence (P14902 whole entry P314A) above, with A314P counted along it
# T3 sequence (P14902 whole entry): as the sequence (P14902 whole entry P314A) above, with A314P counted along it
Structure (SMILES),IC50 (IDO1 [1]),Ki (IDO1 [2]),ΔTm at 30 µM (IDO1 [3]),IC50 (IDO1 [4]),other results
"C=C(C)[C@H](CC=C(C)C)Cc1c(O)cc(OC)c2c1O[C@H](c1ccc(O)cc1OC)CC2=O [(2S)-2′-Methoxy kurarinone (MK, 5), (2S)-2'-methoxy kurarinone]",23.8 ± 1.6 µM,13.7 ± 0.03 µM,0.4 °C,31.4 ± 1.3 µM,–
"C=C(C)[C@H](CC=C(C)C)Cc1c(O)cc(OC)c2c1O[C@H](c1ccc(O)cc1O)CC2=O [(−)-Kurarinone (3), (−)-kurarinone]",74.9 ± 4.9 µM,–,–,23.4 ± 1.3 µM,–
"CC(C)=CCc1c(O)c(CC=C(C)C)c2c(c1O)C(=O)C[C@@H](c1ccc(O)cc1O)O2 [Kushenol E (KE, 6), kushenol E]",4.3 ± 0.3 µM,9.5 ± 0.6 µM,5.7 °C,7.7 ± 6.2 µM,"Kd (His-IDO1 (P314A) [5]; 25 °C, PBS 5% DMSO): 8.9 ± 0.2 µM; kon (His-IDO1 (P314A) [5]; [7]): 120 M⁻¹ s⁻¹; Kd (His-IDO1 (WT); 25 °C, PBS 5% DMSO): 6.5 ± 0.1 µM; kon (His-IDO1 (WT); [7]): 136 M⁻¹ s⁻¹; IC50 (His-IDO1 (P314A) [6]): 29.8 ± 1.8 µM"
"C=C(C)[C@H](CC=C(C)C)Cc1c(O)cc(O)c2c1O[C@H](c1ccc(O)cc1O)CC2=O [Kushenol F (KF, 4), kushenol F]",28.3 ± 0.3 µM,20.2 ± 3.1 µM,1.5 °C,25.4 ± 4.4 µM,–
"CC(C)=CCc1c(O)cc(O)c2c(=O)c(O)c(-c3ccc(O)cc3)oc12 [Noranhydroicaritin (1), noranhydroicaritin]",42.2 ± 3.5 µM,–,–,23.5 ± 2.2 µM,–
"CC(C)=CCc1c(O)cc(O)c2c1OC(c1ccc(O)cc1)CC2=O (stereo not drawn) [Sophoraflavanone B (2), sophoraflavanone B]",83.6 ± 10.8 µM,–,–,19.3 ± 1.1 µM,–
"O=C1CC(c2ccc(O)cc2O)Oc2cc(O)cc(O)c21 (stereo not drawn) [Steppogenin, steppogenin, reference compound]",–,–,–,–,His-hIDO1 IC50 (IDO1 [4]): does not affect IDO1 inhibitory activity
